Laboratory results from the supplement of paper PMC10307832.

Experiments:
Assay in all cases: relative viability (nuclei count vs DMSO), 5 days (fraction); higher = more cells survive
Bortezomib + Dasatinib = compound: CC(C)C[C@H](NC(=O)[C@H](Cc1ccccc1)NC(=O)c1cnccn1)B(O)O [Bortezomib] + Cc1nc(Nc2ncc(C(=O)Nc3c(C)cccc3Cl)s2)cc(N2CCN(CCO)CC2)n1 [Dasatinib] (partner 0.075 µM)
In short: (§1)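 Values are medians from duplicate plates. Each reflects relative viability, defined as the nuclei count of treated wells over that of vehicle wells. Lung cancer cell lines in 1536-well plates were pin-tool dosed one day after seeding with one drug alone or with a fixed anchor-drug dose plus five library-drug doses (not always all listed) in √10 steps, then fixed, stained and imaged at 4× after 5 days.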

[1] = compound: CC1=CC(=NN1)NC2=CC(=NC(=N2)/C=C/C3=CC=CC=C3)N4CCN(CC4)C + Cc1nc(Nc2ncc(C(=O)Nc3c(C)cccc3Cl)s2)cc(N2CCN(CCO)CC2)n1 [Dasatinib] (partner 0.075 µM)
In short: as §1

[2] = compound: CC1=CC(=NN1)NC2=CC(=NC(=N2)/C=C/C3=CC=CC=C3)N4CCN(CC4)C + COc1cccc2cc(-c3nc([C@H]4CC[C@H](C(=O)O)CC4)n4ncnc(N)c34)[nH]c12 [OSI-027] (partner 0.5 µM)
In short: as §1

Obatoclax + Decitabine = compound: COC1=CC(c2cc3ccccc3[nH]2)=N/C1=C\c1[nH]c(C)cc1C [Obatoclax] + Nc1ncn([C@H]2C[C@H](O)[C@@H](CO)O2)c(=O)n1 [Decitabine] (partner 2 µM)
In short: as §1

Cell Line | relative viability (Bortezomib + Dasatinib; first compound 0.0002 µM) | relative viability (Bortezomib + Dasatinib; first compound 0.000632 µM) | relative viability (Bortezomib + Dasatinib; first compound 0.002 µM) | relative viability (Bortezomib + Dasatinib; first compound 0.006325 µM) | relative viability (Bortezomib + Dasatinib; first compound 0.02 µM) | relative viability ([1]; first compound 0.08 µM) | relative viability ([1]; first compound 0.253 µM) | relative viability ([1]; first compound 0.8 µM) | relative viability ([1]; first compound 2.53 µM) | relative viability ([1]; first compound 8 µM) | relative viability ([2]; first compound 0.08 µM) | relative viability ([2]; first compound 0.253 µM) | relative viability ([2]; first compound 0.8 µM) | relative viability ([2]; first compound 2.53 µM) | relative viability ([2]; first compound 8 µM) | relative viability (Obatoclax + Decitabine; first compound 0.01 µM) | relative viability (Obatoclax + Decitabine; first compound 0.03162 µM) | relative viability (Obatoclax + Decitabine; first compound 0.1 µM) | relative viability (Obatoclax + Decitabine; first compound 0.3162 µM) | relative viability (Obatoclax + Decitabine; first compound 1 µM)
HCC-827 | 0.302 | 0.285 | 0.259 | 0.34 | 0.199 | 0.318 | 0.255 | 0.282 | 0.228 | 0.373 | 0.778 | 0.865 | 0.716 | 0.742 | 0.588 | 0.332 | 0.273 | 0.337 | 0.223 | 0.355
HOP-62 | 0.581 | 0.645 | 0.713 | 0.228 | 0.068 | 0.605 | 0.72 | 0.772 | 0.355 | 0.197 | 0.875 | 0.865 | 0.861 | 0.52 | 0.38 | 0.257 | 0.177 | 0.206 | 0.277 | 0.214
LC-2-ad | 0.52 | 0.332 | 0.6 | 0.149 | 0.187 | 0.611 | 0.367 | 0.257 | 0.182 | 0.134 | 0.808 | 0.867 | 0.753 | 0.336 | 0.184 | 0.706 | 0.784 | 0.82 | 0.742 | 0.847
LCLC-97TM1 | 0.738 | 0.732 | 0.862 | 0.718 | 0.148 | 0.867 | 0.724 | 0.885 | 0.622 | 0.552 | 0.427 | 0.335 | 0.564 | 0.192 | 0.2 | 0.216 | 0.197 | 0.196 | 0.214 | 0.192
LCLC-103H | 0.461 | 0.486 | 0.435 | 0.161 | 0.123 | 0.481 | 0.483 | 0.492 | 0.459 | 0.237 | 0.504 | 0.486 | 0.463 | 0.378 | 0.332 | 0.7 | 0.728 | 0.784 | 0.763 | 0.738
LK-2 | 0.287 | 0.304 | 0.203 | 0.114 | 0.138 | 0.242 | 0.246 | 0.226 | 0.139 | 0.0998 | 0.207 | 0.222 | 0.179 | 0.171 | 0.124 | 0.365 | 0.242 | 0.335 | 0.268 | 0.395
LOU-NH91 | 0.539 | 0.529 | 0.519 | 0.271 | 0.226 | 0.576 | 0.614 | 0.61 | 0.448 | 0.302 | 0.767 | 0.842 | 0.742 | 0.699 | 0.507 | 0.743 | 0.833 | 0.728 | 0.758 | 0.606
LU99A | 0.521 | 0.381 | 0.655 | 0.433 | 0.174 | 0.546 | 0.547 | 0.475 | 0.22 | 0.146 | 0.292 | 0.327 | 0.28 | 0.256 | 0.155 | 0.915 | 0.89 | – | 0.847 | 0.976
LXF-289 | 0.374 | 0.151 | 0.227 | 0.0474 | 0.0368 | 0.258 | 0.26 | 0.187 | 0.0576 | 0.0234 | 0.826 | 0.834 | 0.673 | 0.42 | 0.0972 | 0.346 | 0.385 | 0.372 | 0.342 | 0.408
NCI-H23 | 0.913 | 0.976 | 0.76 | 0.224 | 0.108 | 0.769 | 0.764 | 0.815 | 0.683 | 0.137 | 0.417 | 0.563 | 0.539 | 0.291 | 0.115 | 0.328 | 0.272 | 0.369 | 0.286 | 0.349
NCI-H322M | 0.26 | – | 0.253 | 0.229 | 0.286 | 0.268 | 0.254 | 0.228 | 0.206 | 0.209 | 0.504 | 0.546 | 0.538 | 0.364 | 0.278 | 0.701 | 0.687 | 0.856 | 0.818 | 0.662
NCI-H358 | 0.162 | 0.153 | 0.164 | 0.084 | 0.073 | 0.171 | 0.23 | 0.173 | 0.08 | 0.0626 | 0.769 | 0.933 | 0.483 | 0.0714 | 0.0592 | 0.213 | 0.187 | 0.232 | 0.157 | 0.137
NCI-H441 | 0.646 | 0.507 | 0.282 | 0.136 | 0.119 | 0.526 | 0.443 | 0.61 | 0.159 | 0.117 | 0.607 | 0.501 | 0.589 | 0.226 | 0.179 | 0.213 | 0.272 | 0.287 | 0.2 | 0.194
NCI-H1563 | 0.448 | 0.428 | 0.411 | 0.465 | 0.455 | 0.462 | 0.463 | 0.497 | 0.432 | 0.288 | 0.776 | 0.813 | 0.722 | 0.65 | 0.431 | – | – | – | – | –
NCI-H1623 | 0.537 | 0.572 | 0.565 | 0.52 | 0.262 | 0.469 | 0.559 | 0.614 | 0.494 | 0.543 | 0.412 | 0.41 | 0.411 | 0.377 | 0.282 | – | – | – | – | –
NCI-H1648 | – | – | – | – | – | – | – | – | – | – | 0.257 | 0.272 | 0.26 | 0.263 | 0.258 | 0.594 | 0.421 | 0.829 | 0.447 | 0.39
NCI-H2228 | 0.475 | 0.464 | 0.328 | 0.0587 | 0.0925 | 0.448 | 0.539 | 0.369 | 0.0563 | 0.0381 | 0.566 | 0.595 | 0.557 | 0.0751 | 0.0577 | – | – | – | – | –
